“Also recorded” adds a separate entry of the source.

For the assay, the system named is gastro-intestinal transit (gastric emptying) in the mouse. As to the kind of experiment: Gastric emptying (stomach content weight) after charcoal suspension in fasted mice, subcutaneous administration. Conditions: male Swiss mice, subcutaneous injection of a composition comprising pramlintide alone, versus vehicle. Format: in vivo. The procedure:
The aim of this study was to evaluate the effects of pramlintide (compositions C7-1 and C7-2) and co-administration of pramlintide (compositions C7-1 and C7-2) and exenatide (C7-3 and C7-4) on gastro-intestinal transit (gastric emptying) in the mouse.
Co-administration means that the composition of pramlintide and the composition of exenatide were administered separately.
Studies were conducted on naive male Swiss mice (Janvier Lab) as no gender specific effect were expected. Body weight range of 25-32 g were included in the analysis.
Mice were approximately fasted for 18 hours (~T0-18 h). The gastric emptying (i.e. stomach content) was measured via the administration of a suspension of charcoal at T0 (activated charcoal (0.4 ml/mouse, […]; Sigma Reference number C9157), suspended 10% with 2.5% arabic gum in distilled water). […] Afterwards, the stomach was opened, the contents washed out and the weight recorded again (empty stomach weight).
The results are expressed as the variation of gastric content with the administration compositions comprising pramlintide compared with the gastric content with administration the vehicle (weight of gastric content with pramlintide / weight of gastric content with vehicle). […]

Turning to “Lys-Cys-Asn-Thr-Ala-Thr-Cys-Ala-Thr-Gln-Arg-Leu-Ala-Asn-Phe-Leu-Val-His-Ser-Ser-Asn-Asn-Phe-Gly-Pro-lle-Leu-Pro-Pro-Thr-Asn-Val-Gly-Ser- Asn-Thr-Tyr [pramlintide]”, the “stomach (gastric) content weight, i.e. gastric emptying, result in words” value is on record as “increases the stomach content weight; also recorded: increases the gastric content weight”.

The record behind these values is EP4129324A1, “COMPOSITIONS COMPRISING AT LEAST AN AMYLIN RECEPTOR AGONIST AND A GLP-1 RECEPTOR AGONIST” (Adocia, priority 2021, dated 2023).
